Data: US11969408B2, “Method for improving mitophagy in subjects” (Amazentis SA, priority 2017, dated 2024)

Experiments:
Type in all cases: in vivo, human
[1] = Plasma pharmacokinetics after single oral dose (clinical study Part A)
Procedure: Part A: The study was a double-blind, randomized, single ascending doses, study in 24 healthy elderly male and female volunteers. Each subject was randomized for two subsequent doses in three cohorts. Part A: Single oral dose administration on D1 of each period according to the randomisation. The administration took place around 8:00 am with around 200 mL tap water, in sitting position, and under fasting conditions. Cohort 1 (8 subjects): 250 mg urolithin A (6 subjects) or placebo (2 subjects) capsule soft gel formulation then 2000 mg urolithin A or placebo capsule soft gel formulation. Cohort 3 (8 subjects): 1000 mg urolithin A (6 subjects) or placebo (2 subjects) capsule soft gel formulation. After single dosing: Cmax, tmax, AUC0-t, AUC0-∞, t1/2 From the plasma concentration-time data, the following pharmacokinetic parameters will be determined, as data permit using non-compartmental methods: maximum observed plasma concentration (Cmax) (ng/mL), time at which maximum observed plasma concentration (tmax) (h), area under the plasma concentration-time curve AUC(0-24h) (ng/mL*h) and AUC(0-∞) (ng/mL*h), and apparent terminal phase half-life (t1/2) (h). Blood sampling was performed for urolithin A concentration measurements at the exact timepoints with an authorised time window described in the table below: At each time point indicated in the table, a 6 mL blood sample was drawn into K2-EDTA coated tube. The blood samples were gently inverted a few times for complete mixing with the anticoagulant. The exact time of sample collection was recorded on the eCRF. Within 30 minutes following blood collection, each blood sample was centrifuged at 1500 g for 10 minutes at 4° C. From the plasma concentration-time data, the following pharmacokinetic parameters were determined, as data permit using non-compartmental methods: maximum observed plasma concentration (Cmax), time at which maximum observed plasma concentration (tmax), area under the plasma concentration-time curve AUC(0-24h) and AUC(0-∞), and apparent terminal phase half-life (t1/2).

plasma acylcarnitines = assay: Plasma metabolomics: acylcarnitine plasma levels
Procedure: Blood sampling was performed for analysis on plasma at the exact time-points described in the table below: Blood handling procedures: at each time point indicated in the table, a 6 mL blood sample was drawn into K2-EDTA coated tube. The blood samples were gently inverted a few times for complete mixing with the anticoagulant. The exact time of sample collection was recorded on the eCRF. Within 30 minutes following blood collection, each blood sample was centrifuged at 1500 g for 10 minutes at 4° C. 30 minutes after the centrifugation, the top layer of human plasma was transferred into 2 pre-labelled polypropylene tubes, containing approximately 1500 μL of plasma. Blood cells were not transferred. All sample tubes were clearly and appropriately labelled. Tubes were capped immediately from each time point and the plasma was be frozen in an upright position at approximately −80° C. for storage. […] Proprietary software was used to match ions to an in-house library of standards for metabolite identification and for metabolite quantitation by peak area integration. A total of 781 metabolites were quantified. […] The grey line in FIG. 11 corresponds to a fold change of 1, i.e. absence of effect. *P<0.05 correspond to a significant effect from D-1 (pre-dose) to D28, calculated after a repeated measures ANOVA. […]

[2] = test system: mitochondrial content per cell in muscle tissue; assay: Mitochondrial DNA copies per cell in muscle tissue; details: 1000 mg per day for 28 days compared with placebo
Procedure: Muscle biopsies were collected on Day −1 and Day 28 at pre-dose under fasted state using the Bergström biopsy needle technique. The minimal amount of each muscle tissue sample was approximately 50 mg. One third of the tissue was used for gene expression (≈50 mg), and was further divided into two equal portions: one portion for RNA analysis (≈25 mg) and one portion for DNA analysis (≈25 mg), both in a Safe-lock Tubes 2.0 ml, Eppendorf (part no. 0030.120.094). Muscle tissue was snap frozen using liquid nitrogen immediately after collection and further, long term storage will be in a −80° C. freezer. The mRNA was analysed by microarray. Quantification of mtDNA over nuclear DNA provided another measure of mitochondrial abundance. The shipment was done in dry ice by specialized carrier. Temperatures were monitored using data logger during all transport. Increasing mitochondrial content per cell in muscle tissue was also observed following dosage of 1000 mg urolithin A per day for 28 days compared with placebo.

For `O=c1oc2cc(O)ccc2c2ccc(O)cc12` [Urolithin A], the “plasma levels of urolithin A per mg dosed (dose-normalised Cmax and AUC)” value ([1]; 1000 mg dosage compared with 2000 mg dosage, single oral dose) was “higher plasma levels”, the Cmax ([1]; both sexes, human, plasma, single oral dose 1000 mg urolithin A, healthy elderly subjects) was 1.92 ng/mL and the AUC ([1]; both sexes, human, plasma, single oral dose 1000 mg urolithin A, healthy elderly subjects, read-out: AUC out to 36 hours) was 15.8 ng·h/mL. For the same compound, the “pharmacokinetics (Cmax and AUC) at 1000 mg compared with 2000 mg” value ([1]; oral administration, 1000 mg vs 2000 mg dosage) was “higher Cmax and AUC”, the carnitine levels (plasma acylcarnitines; 28 days treatment at 1000 mg) was “did not change” and the “plasma short chain up to long chain acylcarnitines” value (plasma acylcarnitines; after 28 days treatment at 1000 mg, day −1 to day 28) was “overall decrease”. The “mitochondrial content per cell in muscle tissue (mitochondrial DNA copies per cell)” value [2] was “Increasing”.
